Experimental data from paper PMC6407917, “Identification of GSK3186899/DDD853651 as a Preclinical Development Candidate for the Treatment of Visceral Leishmaniasis” (Journal of Medicinal Chemistry, 2018).

Experiments:
Assay in all cases: biochemical
Design in all cases: species or system HEK293/K-562/placenta mixed human extract; Kinobeads chemoproteomic competition binding, quantified by TMT LC-MS/MS, dose response up to 20 uM
BRAF = BRAF (Homo sapiens, UniProt P15056)
CHEK2 = CHEK2 (Homo sapiens, UniProt O96017)
Chain of CHEK2 (O96017 whole entry): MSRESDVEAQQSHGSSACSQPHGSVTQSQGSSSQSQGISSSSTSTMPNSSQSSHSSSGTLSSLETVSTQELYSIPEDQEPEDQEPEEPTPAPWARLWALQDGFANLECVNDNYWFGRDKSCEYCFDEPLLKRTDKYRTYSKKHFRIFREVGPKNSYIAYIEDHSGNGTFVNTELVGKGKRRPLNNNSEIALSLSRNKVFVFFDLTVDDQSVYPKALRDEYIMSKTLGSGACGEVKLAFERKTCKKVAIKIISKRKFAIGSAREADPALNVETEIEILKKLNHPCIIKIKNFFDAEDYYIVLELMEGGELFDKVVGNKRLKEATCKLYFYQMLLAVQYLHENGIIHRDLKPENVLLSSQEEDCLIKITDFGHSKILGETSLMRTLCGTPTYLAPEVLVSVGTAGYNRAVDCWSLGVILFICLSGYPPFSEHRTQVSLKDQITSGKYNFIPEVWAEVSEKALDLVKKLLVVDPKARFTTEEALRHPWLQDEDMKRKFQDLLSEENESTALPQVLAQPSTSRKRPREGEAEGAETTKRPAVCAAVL

CHUK = CHUK (Homo sapiens, UniProt O15111)
CSNK1A1 = CSNK1A1 (Homo sapiens, UniProt P48729)
Chain of CSNK1A1 (P48729 whole entry): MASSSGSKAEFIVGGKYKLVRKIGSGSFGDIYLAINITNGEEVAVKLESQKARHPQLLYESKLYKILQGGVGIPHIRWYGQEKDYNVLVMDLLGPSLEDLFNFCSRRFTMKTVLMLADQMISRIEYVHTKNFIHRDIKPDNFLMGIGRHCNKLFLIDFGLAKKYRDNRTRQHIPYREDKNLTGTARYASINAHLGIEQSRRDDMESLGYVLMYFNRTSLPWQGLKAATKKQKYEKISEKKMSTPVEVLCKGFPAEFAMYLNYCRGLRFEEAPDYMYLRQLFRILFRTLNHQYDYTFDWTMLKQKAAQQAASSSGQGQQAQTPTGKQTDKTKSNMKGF

CSNK1D = CSNK1D (Homo sapiens, UniProt P48730)
CSNK2B = CSNK2B (Homo sapiens, UniProt P67870)
DYRK1A = DYRK1A (Homo sapiens, UniProt Q13627)
EPHA5 = EPHA5 (Homo sapiens, UniProt P54756)
Chain of EPHA5 (P54756 whole entry): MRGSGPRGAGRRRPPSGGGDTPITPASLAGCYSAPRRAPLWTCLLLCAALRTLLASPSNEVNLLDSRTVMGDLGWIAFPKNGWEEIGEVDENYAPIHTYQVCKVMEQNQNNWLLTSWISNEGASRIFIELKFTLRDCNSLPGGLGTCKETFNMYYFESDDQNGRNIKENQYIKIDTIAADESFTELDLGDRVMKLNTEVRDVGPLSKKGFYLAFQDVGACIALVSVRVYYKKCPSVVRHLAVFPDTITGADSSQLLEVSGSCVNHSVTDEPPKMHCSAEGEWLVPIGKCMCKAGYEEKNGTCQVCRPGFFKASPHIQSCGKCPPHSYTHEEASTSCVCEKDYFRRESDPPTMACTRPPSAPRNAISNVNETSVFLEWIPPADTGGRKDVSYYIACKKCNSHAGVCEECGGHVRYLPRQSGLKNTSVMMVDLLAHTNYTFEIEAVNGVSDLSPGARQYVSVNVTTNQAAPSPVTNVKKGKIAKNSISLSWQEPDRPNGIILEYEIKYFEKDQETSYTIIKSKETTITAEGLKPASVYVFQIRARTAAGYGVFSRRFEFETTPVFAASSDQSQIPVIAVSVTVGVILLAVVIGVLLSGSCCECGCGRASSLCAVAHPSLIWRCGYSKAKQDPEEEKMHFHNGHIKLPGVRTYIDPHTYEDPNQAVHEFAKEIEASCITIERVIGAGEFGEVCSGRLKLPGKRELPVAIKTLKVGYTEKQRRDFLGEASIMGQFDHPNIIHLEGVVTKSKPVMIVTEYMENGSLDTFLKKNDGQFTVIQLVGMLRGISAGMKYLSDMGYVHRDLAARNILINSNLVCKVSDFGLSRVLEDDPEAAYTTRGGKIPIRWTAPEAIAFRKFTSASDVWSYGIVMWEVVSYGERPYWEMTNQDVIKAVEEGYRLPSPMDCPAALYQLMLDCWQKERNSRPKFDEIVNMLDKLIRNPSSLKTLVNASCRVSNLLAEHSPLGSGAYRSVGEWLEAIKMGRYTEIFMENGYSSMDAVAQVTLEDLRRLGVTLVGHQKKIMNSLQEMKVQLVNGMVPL

FN3KRP = FN3KRP (Homo sapiens, UniProt Q9HA64)
FYN = FYN (Homo sapiens, UniProt P06241)
GSK3A = GSK3A (Homo sapiens, UniProt P49840)
HIPK1 = HIPK1 (Homo sapiens, UniProt Q86Z02)
Chain of HIPK1 (Q86Z02 whole entry): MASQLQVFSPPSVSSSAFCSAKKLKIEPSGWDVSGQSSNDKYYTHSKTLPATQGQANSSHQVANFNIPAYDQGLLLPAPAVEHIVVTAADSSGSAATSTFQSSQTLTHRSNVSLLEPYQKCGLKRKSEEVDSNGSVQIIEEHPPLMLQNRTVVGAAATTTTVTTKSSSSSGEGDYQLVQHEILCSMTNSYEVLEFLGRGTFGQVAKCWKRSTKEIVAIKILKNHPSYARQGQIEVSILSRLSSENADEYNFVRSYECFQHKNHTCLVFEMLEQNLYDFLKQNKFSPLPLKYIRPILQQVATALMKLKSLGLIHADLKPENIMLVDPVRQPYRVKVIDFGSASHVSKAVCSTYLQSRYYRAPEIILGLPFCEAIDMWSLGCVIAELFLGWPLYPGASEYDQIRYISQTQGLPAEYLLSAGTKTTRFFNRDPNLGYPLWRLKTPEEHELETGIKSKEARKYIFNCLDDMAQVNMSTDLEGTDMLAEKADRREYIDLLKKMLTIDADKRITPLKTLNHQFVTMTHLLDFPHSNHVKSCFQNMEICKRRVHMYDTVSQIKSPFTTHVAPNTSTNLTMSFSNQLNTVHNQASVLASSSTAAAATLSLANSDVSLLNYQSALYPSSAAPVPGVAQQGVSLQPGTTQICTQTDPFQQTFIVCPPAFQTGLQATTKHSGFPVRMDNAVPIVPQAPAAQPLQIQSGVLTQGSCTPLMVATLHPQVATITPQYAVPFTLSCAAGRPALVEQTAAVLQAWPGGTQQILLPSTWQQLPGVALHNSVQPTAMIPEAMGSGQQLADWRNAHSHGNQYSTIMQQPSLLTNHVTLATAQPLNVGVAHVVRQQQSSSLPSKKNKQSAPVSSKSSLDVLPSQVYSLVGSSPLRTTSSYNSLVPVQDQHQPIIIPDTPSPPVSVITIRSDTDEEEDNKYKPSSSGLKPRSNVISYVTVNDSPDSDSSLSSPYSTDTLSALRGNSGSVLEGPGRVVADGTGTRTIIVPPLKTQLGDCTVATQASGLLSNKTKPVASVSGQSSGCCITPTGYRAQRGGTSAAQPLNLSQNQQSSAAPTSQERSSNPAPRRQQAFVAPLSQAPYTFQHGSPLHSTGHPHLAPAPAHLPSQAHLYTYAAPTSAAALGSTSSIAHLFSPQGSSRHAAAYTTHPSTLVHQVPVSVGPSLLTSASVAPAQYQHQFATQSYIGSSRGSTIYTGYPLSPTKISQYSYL

MAP3K13 = MAP3K13 (Homo sapiens, UniProt O43283)
MAP3K5 = MAP3K5 (Homo sapiens, UniProt Q99683)
NTRK1 = NTRK1 (Homo sapiens, UniProt P04629)
PAK4 = PAK4 (Homo sapiens, UniProt O96013)
Chain of PAK4 (O96013 whole entry): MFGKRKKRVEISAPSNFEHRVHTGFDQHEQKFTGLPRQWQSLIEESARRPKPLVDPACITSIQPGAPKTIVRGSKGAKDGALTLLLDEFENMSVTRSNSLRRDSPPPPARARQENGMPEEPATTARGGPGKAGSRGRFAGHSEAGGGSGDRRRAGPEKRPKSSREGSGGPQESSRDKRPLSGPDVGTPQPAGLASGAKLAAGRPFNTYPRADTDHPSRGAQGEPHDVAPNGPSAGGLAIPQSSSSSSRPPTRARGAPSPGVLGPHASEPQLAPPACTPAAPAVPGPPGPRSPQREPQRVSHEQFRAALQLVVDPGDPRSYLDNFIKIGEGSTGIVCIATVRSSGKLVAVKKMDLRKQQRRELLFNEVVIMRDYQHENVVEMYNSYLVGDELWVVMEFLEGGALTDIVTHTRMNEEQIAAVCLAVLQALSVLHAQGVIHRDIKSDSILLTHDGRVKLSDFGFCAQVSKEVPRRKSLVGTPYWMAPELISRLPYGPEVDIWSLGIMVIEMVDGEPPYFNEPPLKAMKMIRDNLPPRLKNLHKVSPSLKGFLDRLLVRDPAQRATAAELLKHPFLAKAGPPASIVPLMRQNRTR

PDIK1L = PDIK1L (Homo sapiens, UniProt Q8N165)
Chain of PDIK1L (Q8N165 whole entry): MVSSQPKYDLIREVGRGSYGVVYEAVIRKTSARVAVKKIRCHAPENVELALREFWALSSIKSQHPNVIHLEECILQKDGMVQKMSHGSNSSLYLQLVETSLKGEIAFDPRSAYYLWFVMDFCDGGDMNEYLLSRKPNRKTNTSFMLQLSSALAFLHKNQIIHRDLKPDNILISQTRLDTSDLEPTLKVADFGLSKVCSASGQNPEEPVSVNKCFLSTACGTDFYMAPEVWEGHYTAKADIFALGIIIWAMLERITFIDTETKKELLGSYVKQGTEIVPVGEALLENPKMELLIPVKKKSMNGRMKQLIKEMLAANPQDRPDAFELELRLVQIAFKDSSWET

PRKD1 = PRKD1 (Homo sapiens, UniProt Q15139)
RPS6KA5 = RPS6KA5 (Homo sapiens, UniProt O75582)
STK35 = STK35 (Homo sapiens, UniProt Q8TDR2)
TYRO3 = TYRO3 (Homo sapiens, UniProt Q06418)
Chain of TYRO3 (Q06418 whole entry): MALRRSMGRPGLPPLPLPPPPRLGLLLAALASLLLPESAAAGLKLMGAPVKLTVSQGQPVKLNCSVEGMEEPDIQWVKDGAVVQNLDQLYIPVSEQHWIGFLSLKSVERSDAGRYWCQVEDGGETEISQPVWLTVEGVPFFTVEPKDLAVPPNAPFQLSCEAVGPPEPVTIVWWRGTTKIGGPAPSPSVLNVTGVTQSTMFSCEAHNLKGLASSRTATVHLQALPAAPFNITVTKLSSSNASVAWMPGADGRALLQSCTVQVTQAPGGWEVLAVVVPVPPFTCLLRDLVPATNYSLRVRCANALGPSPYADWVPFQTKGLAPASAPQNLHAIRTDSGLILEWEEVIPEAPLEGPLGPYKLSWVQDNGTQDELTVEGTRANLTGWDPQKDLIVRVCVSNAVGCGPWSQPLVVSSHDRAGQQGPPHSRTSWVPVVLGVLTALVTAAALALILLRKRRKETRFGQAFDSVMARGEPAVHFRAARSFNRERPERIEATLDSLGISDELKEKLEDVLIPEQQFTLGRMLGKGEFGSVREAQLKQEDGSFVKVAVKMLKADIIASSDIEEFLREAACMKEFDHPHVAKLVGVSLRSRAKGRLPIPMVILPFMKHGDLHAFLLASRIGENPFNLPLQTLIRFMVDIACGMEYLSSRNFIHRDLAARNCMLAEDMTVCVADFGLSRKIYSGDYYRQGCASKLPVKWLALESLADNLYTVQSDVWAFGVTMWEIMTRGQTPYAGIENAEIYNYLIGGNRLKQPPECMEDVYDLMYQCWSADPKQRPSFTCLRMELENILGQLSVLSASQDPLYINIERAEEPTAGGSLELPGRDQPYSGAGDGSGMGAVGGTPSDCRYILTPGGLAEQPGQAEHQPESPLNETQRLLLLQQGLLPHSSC

Measured: IC50

COc1nc(N[C@H]2CC[C@H](NS(=O)(=O)CC(C)C)CC2)nc2[nH]nc(N3CCOC[C@H]3C)c12 [compound 39, N-(trans-4-((4-Methoxy-3-((R)-3-methylmorpholino)-1H-pyrazolo[3,4-d]pyrimidin-6-yl)amino)cyclohexyl)-2-methylpropane-1-sulfonamide]
≥ 20 µM: all assays above
